Source: ChEMBL document CHEMBL4680157, “Design, synthesis and biological evaluation of novel TRβ selective agonists sustained by ADME-toxicity analysis” (Eur J Med Chem, 2020)
Activity calls are given as the source filed them. No cut-off for these calls is given here.

How the values were obtained:
[1] = Cytotoxicity against human U2OS cells assessed as cell growth inhibition at 10 uM after 48 hrs relative to control; assay type: cell-based
HDAC6 = biological target: T1, HDAC6 (Homo sapiens, UniProt Q9UBN7); test: Inhibition of HDAC6 (unknown origin) at 10 uM relative to control
T1 sequence (Q9UBN7 whole entry): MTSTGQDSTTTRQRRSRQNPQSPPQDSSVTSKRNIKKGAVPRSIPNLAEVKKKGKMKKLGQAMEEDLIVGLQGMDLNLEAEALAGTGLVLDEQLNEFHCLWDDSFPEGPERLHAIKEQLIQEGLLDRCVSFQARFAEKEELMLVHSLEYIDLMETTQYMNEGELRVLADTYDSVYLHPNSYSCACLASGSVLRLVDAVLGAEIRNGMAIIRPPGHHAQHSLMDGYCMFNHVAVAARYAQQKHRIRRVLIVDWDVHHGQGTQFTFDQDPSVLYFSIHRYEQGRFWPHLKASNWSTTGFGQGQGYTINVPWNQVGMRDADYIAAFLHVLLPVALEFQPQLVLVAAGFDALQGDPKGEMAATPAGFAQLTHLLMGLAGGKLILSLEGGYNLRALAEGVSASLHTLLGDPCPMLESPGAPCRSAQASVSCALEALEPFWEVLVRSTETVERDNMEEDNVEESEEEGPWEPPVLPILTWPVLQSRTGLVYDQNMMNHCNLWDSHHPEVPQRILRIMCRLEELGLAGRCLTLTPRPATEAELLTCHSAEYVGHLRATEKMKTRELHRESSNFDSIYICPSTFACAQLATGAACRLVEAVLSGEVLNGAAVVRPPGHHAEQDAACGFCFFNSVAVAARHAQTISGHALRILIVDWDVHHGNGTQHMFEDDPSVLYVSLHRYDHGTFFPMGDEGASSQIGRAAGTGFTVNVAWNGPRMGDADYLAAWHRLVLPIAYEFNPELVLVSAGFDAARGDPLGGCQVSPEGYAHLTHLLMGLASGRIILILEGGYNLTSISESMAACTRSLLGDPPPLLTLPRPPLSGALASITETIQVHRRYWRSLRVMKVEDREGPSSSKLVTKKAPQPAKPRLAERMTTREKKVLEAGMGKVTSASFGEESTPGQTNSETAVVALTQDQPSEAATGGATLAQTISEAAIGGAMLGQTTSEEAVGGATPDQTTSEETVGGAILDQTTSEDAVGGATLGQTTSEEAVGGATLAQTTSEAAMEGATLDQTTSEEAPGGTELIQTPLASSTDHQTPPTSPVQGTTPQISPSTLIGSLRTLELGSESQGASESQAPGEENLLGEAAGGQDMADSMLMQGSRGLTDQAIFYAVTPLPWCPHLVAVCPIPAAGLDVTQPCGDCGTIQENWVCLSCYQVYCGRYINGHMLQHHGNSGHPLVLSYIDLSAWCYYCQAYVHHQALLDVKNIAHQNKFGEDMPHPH

HDAC8 = biological target: T2, HDAC8 (Homo sapiens, UniProt Q9BY41); test: Inhibition of HDAC8 (unknown origin) at 10 uM relative to control
T2 sequence (Q9BY41 whole entry): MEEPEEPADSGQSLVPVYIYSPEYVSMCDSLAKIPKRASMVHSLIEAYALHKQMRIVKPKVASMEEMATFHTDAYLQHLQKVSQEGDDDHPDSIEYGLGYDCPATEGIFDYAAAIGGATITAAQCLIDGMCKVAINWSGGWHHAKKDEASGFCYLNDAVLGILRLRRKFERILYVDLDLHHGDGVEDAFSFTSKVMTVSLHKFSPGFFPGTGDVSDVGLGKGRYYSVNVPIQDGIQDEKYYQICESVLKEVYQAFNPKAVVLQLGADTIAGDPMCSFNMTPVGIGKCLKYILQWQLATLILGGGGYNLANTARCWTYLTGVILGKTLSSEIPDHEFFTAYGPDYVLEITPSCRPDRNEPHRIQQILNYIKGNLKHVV

HepG2 = test: Induction of lipolysis in human HepG2 cells assessed as reduction in intracellular lipid accumulation at 1 to 10 uM incubated for 24 hrs by Oil Red O staining based spectrophotometric analysis; assay type: functional, cell-based; details: dose 1-10 µM
[2] = Toxicity in F344 rat assessed as increase in heart weight at 50 to 100 ug per 100 g body weight, ig administered daily for 3 days; details: in vivo, po, 72 h, dose 50-100 µg, time 3 day
[3] = Toxicity in F344 rat assessed as increase in heart and body weight ratio at 50 to 100 ug per 100 g body weight, ig administered daily for 3 days; details: in vivo, po, 72 h, dose 50-100 µg, time 3 day
[4] = Toxicity in F344 rat assessed as effect on serum AST/GOT level at 50 ug per 100 g of body weight, ig administered daily for 3 days (reference value: 153 +/- 11 U/L); details: in vivo, po, 72 h, dose 50 µg, time 3 day
[5] = Toxicity in F344 rat assessed as effect on serum AST/GOT level at 75 ug per 100 g of body weight, ig administered daily for 3 days (reference value: 153 +/- 11 U/L); details: in vivo, po, 72 h, dose 75 µg, time 3 day
[6] = Toxicity in F344 rat assessed as effect on serum ALT/GPT level at 100 ug per 100 g body weight, ig administered daily for 3 days (reference value: 46 +/- 4 U/L); details: in vivo, po, 72 h, dose 100 µg, time 3 day
[7] = Toxicity in F344 rat assessed as effect on serum bilirubin level at 75 ug per 100 g body weight, ig administered daily for 3 days (reference value: 1.4 +/- 0.2 mg/dl); details: in vivo, po, 72 h, dose 75 µg, time 3 day
[8] = Toxicity in F344 rat assessed as effect on serum bilirubin level at 100 ug per 100 g body weight, ig administered daily for 3 days (reference value: 1.4 +/- 0.2 mg/dl); details: in vivo, po, 72 h, dose 100 µg, time 3 day
[9] = Toxicity in F344 rat assessed as effect on serum glucose level at 75 ug per 100 g body weight, ig administered daily for 3 days (reference value: 151 +/- 13.5 mg/dl); details: in vivo, po, 72 h, dose 75 µg, time 3 day
[10] = Toxicity in F344 rat assessed as effect on serum glucose level at 75 ug per 100 g body weight, ip administered daily for 3 days (reference value: 151 +/- 13.5 mg/dl); assay type: organism-based; details: in vivo, 72 h, dose 75 µg, time 3 day
[11] = Toxicity in F344 rat assessed as effect on serum cholesterol level at 50 ug per 100 g body weight, ig administered daily for 3 days (reference value: 67.2 +/- 2.5 mg/dl); details: in vivo, po, 72 h, dose 50 µg, time 3 day
[12] = Toxicity in F344 rat assessed as effect on serum cholesterol level at 75 ug per 100 g body weight, ip administered daily for 3 days (reference value: 67.2 +/- 2.5 mg/dl); assay type: organism-based; details: in vivo, 72 h, dose 75 µg, time 3 day
[13] = Toxicity in F344 rat assessed as effect on serum triglycerides level at 50 ug per 100 g body weight, ig administered daily for 3 days (reference value: 86.8 +/- 10.4 mg/dl); details: in vivo, po, 72 h, dose 50 µg, time 3 day
[14] = Toxicity in F344 rat assessed as effect on serum triglycerides level at 75 ug per 100 g body weight, ig administered daily for 3 days (reference value: 86.8 +/- 10.4 mg/dl); details: in vivo, po, 72 h, dose 75 µg, time 3 day

SMILES | inhibition at 48 h, 10 µM [1] [%] | inhibition at 10 µM (HDAC6) [%] | inhibition at 10 µM (HDAC8) [%] | Activity (HepG2) | Activity [2] | Activity [3] | Activity [4] [U/L] | Activity [5] [U/L] | Activity [6] [U/L] | Activity [7] [mg/dL] | Activity [8] [mg/dL] | Activity [9] [mg/dL] | Activity [10] [mg/dL] | Activity [11] [mg/dL] | Activity [12] [mg/dL] | Activity [13] [mg/dL] | Activity [14] [mg/dL]
CC(=O)Nc1ccc(Cc2c(C)cc(OCC(=O)O)cc2C)cc1C(C)C | < 50 | < 50 | < 50 | Active | Non-Toxic | Non-Toxic | 141 | 133 | 37 | 0.9 | 1.1 | 132 | 132 | 68 | 71.4 | 70.4 | 67
Cc1cc(OCC(=O)O)cc(C)c1Cc1ccc(O)cc1 | < 50 | < 50 | < 50 | – | – | – | – | – | – | – | – | – | – | – | – | – | –
Cc1cc(OCC(=O)O)cc(C)c1Cc1ccc(N)c(C(C)C)c1 | < 50 | < 50 | < 50 | Active | Non-Toxic | Non-Toxic | 134 | 119 | 42 | 1.6 | 1 | 153 | 129 | 69.5 | 69.6 | 68.3 | 74
